Assay [1] concerns the target Sigma non-opioid intracellular receptor 1 (Cavia porcellus, UniProt Q60492). In words: Displacement of [3H]pentazocine from Sigma1 receptor in guinea pig brain membrane. The assay is classed as cell membranes. For orientation: In a radioligand displacement assay an active substance lowers the binding of a labelled ligand.
Assay [2] is described as follows: Displacement of [3H]DTG from sigma2 receptor in Wistar rat liver membrane in presence of 1 uM […]. In kind it is cell membranes.
The target in assay [3] is T1, 3-beta-hydroxysteroid-Delta(8),Delta(7)-isomerase (Cavia porcellus, UniProt Q60490).
T1 sequence (Q60490 whole entry): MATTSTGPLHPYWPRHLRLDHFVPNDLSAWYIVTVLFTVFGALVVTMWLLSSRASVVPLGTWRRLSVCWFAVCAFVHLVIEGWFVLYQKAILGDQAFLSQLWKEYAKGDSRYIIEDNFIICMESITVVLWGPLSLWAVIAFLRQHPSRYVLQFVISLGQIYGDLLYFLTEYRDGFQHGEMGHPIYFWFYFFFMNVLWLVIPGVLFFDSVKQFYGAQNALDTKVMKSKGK
The assay is described as follows: Displacement of [3H]emopamil from Delta-(8)-Delta-(7) sterol isomerase in guinea pig liver membrane. In kind it is cell membranes.

The nature of assay [4]: Selectivity for sigma1 receptor over sigma2 receptor.
Assay [5] can be described thus: (§1) Binding affinity to sigma2 receptor in Wistar rat liver membrane. In kind it is cell membranes.
For assay [6], the species on record is Rattus norvegicus. The assay is described as §1. In kind it is cell membranes.

Broadly, the Ki is the equilibrium dissociation constant of an inhibitor or competing ligand from its target. As usually defined, the Kd is the concentration at which binding is half-saturated.

Sequence of Sigma non-opioid intracellular receptor 1 (Q60492 whole entry): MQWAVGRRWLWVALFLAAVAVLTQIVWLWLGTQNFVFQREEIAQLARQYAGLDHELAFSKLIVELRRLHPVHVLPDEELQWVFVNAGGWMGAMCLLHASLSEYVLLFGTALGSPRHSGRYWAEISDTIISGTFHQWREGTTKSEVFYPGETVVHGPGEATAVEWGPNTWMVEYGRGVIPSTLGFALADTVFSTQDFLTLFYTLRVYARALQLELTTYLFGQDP

Turning to `COc1ccc2cccc(CCCN3CCCC(C)(C)C3)c2c1`, the results for the Ki in assay [1], in assay [2] and in assay [3] were 115 nM, 672 nM and 4.12 nM, respectively. For the same compound, in assay [4], the Ratio Ki was determined as 6.

Turning to `CC1(C)CCCN(CCCCn2c3ccccc3c3ccccc32)C1`, the inhibition constant Ki in assay [1] is 175 nM; in assay [2], 520 nM; in assay [3] it was 270 nM. The Ratio Ki in assay [4] came to 3.

Take `c1ccc2c(c1)c1ccccc1n2CCCN1CCN(C2CCCCC2)CC1`: the Ki in assay [1] was 3450 nM; in assay [2], 12.6 nM; in assay [3], 79.9 nM. In addition, the Ratio Ki in assay [4] was found to be 0.004.

On to `Oc1ccc2c(CCCN3CCN(C4CCCCC4)CC3)cccc2c1`, for which the inhibition constant (Ki) came to 6.78 nM in assay [1], 26.4 nM in assay [2] and 21.3 nM in assay [3]. The Ratio Ki in assay [4] was determined as 4. In assay [5], this compound had a Kd of 21.3 nM. Also, the Bmax in assay [6] was 0.47 pmol/mg.

On to `CC1(C)CCCN(CCCc2cccc3cc(O)ccc23)C1`, for which the Ki in assay [1] was 340 nM; in assay [2], 600 nM; in assay [3], 352 nM. In assay [4], the Ratio Ki was determined as 2.

`Cc1ccccc1NC(=N)Nc1ccccc1C` [DITOLYLGUANIDINE]: in assay [2], the Ki is 30.8 nM.

Regarding `COc1ccc2c(CCCN3CCN(C4CCCCC4)CC3)cccc2c1`, the results for the Ki in assay [1], in assay [2] and in assay [3] were 3.16 nM, 9.02 nM and 7.06 nM, respectively. Further, the Ratio Ki in assay [4] is 3.

For the compound `COc1ccc2c(CCCN3CCCC(C)(C)C3)cccc2c1`, the Ratio Ki in assay [4] turned out to be 680.

Regarding `COc1cccc2c(CCCN3CCN(C4CCCCC4)CC3)cccc12`, the Ki was determined as 9.24 nM in assay [2] and 4.51 nM in assay [3].

Regarding `COc1cccc2c(CCCN3CCCC(C)(C)C3)cccc12`, the inhibition constant (Ki) is 44.9 nM in assay [1], 643 nM in assay [2] and 12.8 nM in assay [3]. Besides, the Ratio Ki in assay [4] was 14.

In the case of `CC1(C)CCCN(CCCCCn2c3ccccc3c3ccccc32)C1`, the inhibition constant Ki in assay [1] stood at 138 nM; in assay [2], 117 nM; in assay [3] it was 24 nM. The Ratio Ki in assay [4] was determined as 0.8.

With `CC1(C)CCCN(CCCc2cccc3ccc(O)cc23)C1`, the values for the Ki in assay [1], in assay [2] and in assay [3] were 733 nM, 412 nM and 30 nM, respectively. In addition, the Ratio Ki in assay [4] stood at 0.6.

For the compound `CC(C(O)c1ccc(O)cc1)N1CCC(Cc2ccccc2)CC1` (racemic) [IFENPRODIL], the Ki in assay [3] is 19.8 nM.

Consider `COc1ccc2cccc(CCCN3CCN(C4CCCCC4)CC3)c2c1`, for which the inhibition constant (Ki) amounted to 0.9 nM in assay [1], 8.27 nM in assay [2] and 42.4 nM in assay [3]. Moreover, the Ratio Ki in assay [4] came out at 9.

As to `Oc1ccc2cccc(CCCN3CCN(C4CCCCC4)CC3)c2c1`, the Ki in assay [1] was determined as 5.48 nM; in assay [2], 11.8 nM; in assay [3] it was 55 nM. Further, the Ratio Ki in assay [4] came to 2.

In the case of `CC1(C)CCCN(CCCn2c3ccccc3c3ccccc32)C1`, the results for the Ki in assay [1], in assay [2] and in assay [3] were 2020 nM, 4480 nM and 345 nM, respectively. Moreover, the Ratio Ki in assay [4] was 2.

The record behind these values is ChEMBL document CHEMBL1148780, “Design and evaluation of naphthol- and carbazole-containing fluorescent sigma ligands as potential probes for receptor binding studies” (J Med Chem, 2007).
